Measurements as given in patent publication US20170239323A1, “ORITAVANCIN FORMULATIONS” (The Medicines Company, priority 2016, published 2017).
Where two headings read alike, the source gives them in different places.

What was measured:
[1] = Dilution in Hank's Balanced Salt Solution (HBSS, plasma surrogate): pH and visual observations; assay type: physicochemical; conditions: for time at which oritavancin started to fall out of solution: repeat with material 24 hours after reconstitution
Procedure: Reconstituting Orbactiv 400 mg (Oritavancin) in 20% w/v aqueous HPCD then diluting in Hank's Balanced Salt Solution (HBSS). 2.641 g of HPCD was dissolved in 13.205 mL of water to make a 20% w/v solution (pH=6.70). Eight (8) mL of the 20% w/v solution was added to a 400 mg vial of Orbactiv for a target oritavancin concentration of 50 mg/mL. […] A 1.5 mL aliquot of 50 mg/mL was removed from the vial and placed in a small glass vial and pH measured. Diluted 2 mL of 50 mg/mL oritavancin solution in 8 mL of HBSS. Visual observations and pH were recorded. (Table 12).
HBSS was used as a plasma surrogate in this experiment. Oritavancin at either 5 or 10 mg/mL precipitated from solution at 2 hours in HBSS. This experiment was repeated with the same material 24 hours later and observed over shorter time intervals. Diluted […] in a small glass vial to make a 10 mg/mL solution. Diluted […] in a small glass vial to make a 5 mg/mL solution. Solutions were observed and pH was tested every 0.25 hrs. (Table 14, Table 15).

[2] = Pharmacokinetics in ABSSSI patients after single 1200 mg IV oritavancin (ORBACTIV) in 1000 mL D5W; assay type: in vivo, human; conditions: plasma; for AUC(0-t) / half-life: iv, 1200 mg
Procedure: Oritavancin (as ORBACTIV®) was evaluated in double-blind, controlled ABSSSI clinical trials, which included 976 adult patients treated with a single 1200 mg intravenous dose of oritavancin in 1000 mL D5W. The formulation was prepared by adding 40 mL of sterile water for injection (WFI) to each of three 400 mg vials of ORBACTIV® to provide a 10 mg/mL solution per vial. Each vial was gently swirled to avoid foaming and ensure that all ORBACTIV powder was completely reconstituted in solution. […] The three solutions were combined and diluted to 1000 mL total volume with 5% dextrose in sterile water (D5W), to give a 1.2 mg/mL solution of oritavancin. The formulation was administered to each subject intravenously over 3 hours, and PK was measured (Table 20). The median age of patients treated with oritavancin was 45.6 years, ranging between 18 and 89 years of age with 8.8%≧65 years of age. Patients treated with oritavancin were predominantly male (65.4%), 64.4% were Caucasian, 5.8% were African American, and 28.1% were Asian. Safety was evaluated for up to 60 days after dosing.

[3] = radiolabeled PK study ADME-rpt-7-053r95; cited from earlier work
[4] = Table 12: 20% w/v HPCD reconstitution diluted in HBSS: oritavancin 10 mg/mL, HPCD 4% w/v, 0 hr
[5] = Table 12: 20% w/v HPCD reconstitution diluted in HBSS: oritavancin 10 mg/mL, HPCD 4% w/v, 0.5 hr
[6] = Table 12: 20% w/v HPCD reconstitution diluted in HBSS: oritavancin 10 mg/mL, HPCD 4% w/v, 1 hr
[7] = Table 12: 20% w/v HPCD reconstitution diluted in HBSS: oritavancin 10 mg/mL, HPCD 4% w/v, 2 hr
[8] = Table 14: repeat with 24-hour-old 20% w/v HPCD reconstitution diluted in HBSS: oritavancin 10 mg/mL, HPCD 2% w/v, 0 hr
[9] = Table 14: repeat with 24-hour-old 20% w/v HPCD reconstitution diluted in HBSS: oritavancin 10 mg/mL, HPCD 2% w/v, 0.25 hr
[10] = Table 15: 24-hour-old 20% w/v HPCD reconstitution diluted in HBSS: oritavancin 5 mg/mL, HPCD 2% w/v, 0 hr
[11] = Table 15: 24-hour-old 20% w/v HPCD reconstitution diluted in HBSS: oritavancin 5 mg/mL, HPCD 2% w/v, 0.25 hr
[12] = Table 15: 24-hour-old 20% w/v HPCD reconstitution diluted in HBSS: oritavancin 5 mg/mL, HPCD 2% w/v, 0.5 hr
[13] = Table 15: 24-hour-old 20% w/v HPCD reconstitution diluted in HBSS: oritavancin 5 mg/mL, HPCD 2% w/v, 0.75 hr
[14] = Table 15: 24-hour-old 20% w/v HPCD reconstitution diluted in HBSS: oritavancin 5 mg/mL, HPCD 2% w/v, 1 hr
[15] = mean, ABSSSI subjects, single 1200 mg IV dose over 3 hours (n = 297)

Compound: CN[C@H](CC(C)C)C(=O)N[C@H]1C(=O)N[C@@H](CC(N)=O)C(=O)N[C@H]2C(=O)N[C@H]3C(=O)N[C@H](C(=O)N[C@H](C(=O)O)c4cc(O)cc(O)c4-c4cc3ccc4O)[C@H](O[C@H]3C[C@](C)(N)[C@@H](O)[C@H](C)O3)c3ccc(c(Cl)c3)Oc3cc2cc(c3O[C@@H]2O[C@H](CO)[C@@H](O)[C@H](O)[C@H]2O[C@H]2C[C@](C)(NCc3ccc(-c4ccc(Cl)cc4)cc3)[C@@H](O)[C@H](C)O2)Oc2ccc(cc2Cl)[C@H]1O [Oritavancin]
- time at which oritavancin precipitated from solution ([1]; 5 mg/mL in HBSS (20% w/v HPCD reconstitution)): 2 h
- time at which oritavancin started to fall out of solution ([1]; 5 mg/mL in HBSS): ~1.5 h
- time at which oritavancin precipitated from solution ([1]; 10 mg/mL in HBSS (20% w/v HPCD reconstitution)): 2 h
- time at which oritavancin started to fall out of solution ([1]; 10 mg/mL in HBSS): 0.5 h
- time for which oritavancin remains in solution ([1]; 20% w/v aqueous HPCD reconstitution diluted into HBSS at 5 mg/mL): at least 1 hour
- Observations [1, 4]: Clear, colorless solution
- pH [1, 4]: 5.83
- Observations [1, 5]: Clear, colorless solution
- pH [1, 5]: 5.86
- Observations [1, 6]: Clear, colorless solution
- pH [1, 6]: 5.87
- Observations [1, 7]: Flocculent white precipitate
- pH [1, 7]: 5.92
- Observations [1, 8]: Clear, colorless solution
- pH [1, 8]: 6.19
- Observations [1, 9]: Clear, colorless solution
- pH [1, 9]: 6.21
- pH ([1]; Table 14: repeat with 24-hour-old 20% w/v HPCD reconstitution diluted in HBSS: oritavancin 10 mg/mL, HPCD 2% w/v, 0.5 hr): 6.30
- pH ([1]; Table 14: repeat with 24-hour-old 20% w/v HPCD reconstitution diluted in HBSS: oritavancin 10 mg/mL, HPCD 2% w/v, 0.75 hr): 6.33
- pH ([1]; Table 14: repeat with 24-hour-old 20% w/v HPCD reconstitution diluted in HBSS: oritavancin 10 mg/mL, HPCD 2% w/v, 1 hr): 6.38
- Observations [1, 10]: Clear, colorless solution
- pH [1, 10]: 6.39
- Observations [1, 11]: Clear, colorless solution
- pH [1, 11]: 6.47
- Observations [1, 12]: Clear, colorless solution
- pH [1, 12]: 6.50
- Observations [1, 13]: Clear, colorless solution
- pH [1, 13]: 6.59
- Observations [1, 14]: Clear, colorless solution
- pH [1, 14]: 6.61
- pH ([1]; Table 15: 24-hour-old 20% w/v HPCD reconstitution diluted in HBSS: oritavancin 5 mg/mL, HPCD 2% w/v, 1.25 hr): 6.63
- pH ([1]; Table 15: 24-hour-old 20% w/v HPCD reconstitution diluted in HBSS: oritavancin 5 mg/mL, HPCD 2% w/v, 1.5 hr): 6.71
- pH ([1]; Table 15: 24-hour-old 20% w/v HPCD reconstitution diluted in HBSS: oritavancin 5 mg/mL, HPCD 2% w/v, 1.75 hr): 6.76
- AUC ([2]; both sexes, human, intravenous, 1200 mg dose in man, read-out: plasma exposure (AUC) in man): ~2800 µg·h/mL
- AUC(0-t) ([2]; both sexes, human, mean, ABSSSI subjects, single 1200 mg IV dose over 3 hours (n = 297), read-out: AUC0-24): 1110 µg·h/mL
- AUC(0-t) ([2]; both sexes, human, mean, ABSSSI subjects, single 1200 mg IV dose over 3 hours (n = 297), read-out: AUC0-72): 1530 µg·h/mL
- half-life ([2]; both sexes, human, mean, ABSSSI subjects, single 1200 mg IV dose over 3 hours (n = 297), read-out: T1/2,α (converted)): 2.29 h
- half-life ([2]; both sexes, human, mean, ABSSSI subjects, single 1200 mg IV dose over 3 hours (n = 297), read-out: T1/2,β (converted)): 13.4 h
- half-life ([2]; both sexes, human, mean, ABSSSI subjects, single 1200 mg IV dose over 3 hours (n = 297), read-out: T1/2,γ (converted)): 245 h
- Vd ([2]; both sexes, human, mean, ABSSSI subjects, single 1200 mg IV dose over 3 hours (n = 297), read-out: Vss): 97.8 L
- AUC(0-inf) ([2]; both sexes, human, per Orbactiv Package Insert (Comparative Example 4): 1200 mg IV, D5W, 3 h infusion): 2800 µg·h/mL
- Cmax ([2]; both sexes, human, per Orbactiv Package Insert (Comparative Example 4): 1200 mg IV, D5W, 3 h infusion, read-out: Cmax): 138 µg/mL
- AUC0-∞ [2, 15]: 2800 µg·h/mL
- Cmax [2, 15]: 138 µg/mL
- plasma AUC relative to whole blood AUC [3]: 1.59 ×
- whole blood AUC as percentage of plasma AUC [3]: 62.8%
